The data set is described as follows: in vitro. Particulars: human, hela cells, % viability.

On to `Cn1cc(-c2ncc(OCCn3cccc3)nc2N)cn1` [CBK145170], for which the viability at 28.5 h, 10 µM came to 107%.
`O=C1COc2ccccc2C/C=C/CC2(CCN(C(=O)CCc3cccnc3)CC2)CN1` [CBK292127]: the viability at 28.5 h, 10 µM stood at 90.8%.
As for `CCS(=O)(=O)n1nc(-c2ccc(OC)cc2)nc1SC` [CBK266526], the viability at 28.5 h, 10 µM is 103%.
In the case of `CCC(=O)OC1(C(=O)c2ccc(F)cc2)CCN(CCCC(c2ccc(F)cc2)c2ccc(F)cc2)CC1` [CBK025227C], the viability at 28.5 h, 10 µM worked out at 84.3%.
For the compound `O=c1[nH]ccn1CCNc1ccc(-c2ccccc2Oc2ccccc2)cn1` [CBK037665], the viability at 28.5 h, 10 µM amounted to 103%.
For the compound `Cc1ccc(CSCC(=O)N2CCC(Cc3ccccc3)CC2)cc1` [CBK058739], the viability at 28.5 h, 10 µM came out at 95.6%.
Take `COC(=O)c1c(NC(=O)CC2Sc3ccccc3NC2=O)sc(C)c1C` (centres unmarked) [CBK264429]: the viability at 28.5 h, 10 µM amounted to 103%.
Regarding `COc1ccc(-c2ccc(CCC(=O)O)n2NC(N)=S)cc1` [CBK266018], the viability at 28.5 h, 10 µM is 102%.
With `Cc1nc2cc(-c3nccn3C)nn2c(N2CCN(c3ccc4c(c3)OCCO4)CC2)c1C` [CBK286186], the viability at 28.5 h, 10 µM amounted to 90.4%.
Take `O=C(COc1ccccc1)C(C(=O)c1ccccc1)=C1Nc2ccccc2N1` [CBK263725]: the viability at 28.5 h, 10 µM stood at 97.8%.
`CC(=O)Nc1cccc(-c2cnc3[nH]c(=O)n(C4CC4)c3n2)c1` [CBK064859]: the viability at 28.5 h, 10 µM came to 103%.
As for `Cc1ccsc1CN(CCCO)Cc1cn(C)nc1C` [CBK282983], the viability at 28.5 h, 10 µM stood at 95.7%.
The same measure, in the same setting: in the case of `Cc1ccccc1NC(=O)c1cnn2cccnc12` [CBK288217] it was 90.3%.
Take `O=C(C1CCCO1)N1CCC(c2ccc(F)cc2)CC1` (centres unmarked) [CBK283484]: the viability at 28.5 h, 10 µM came to 81.4%.
On to `O=C(CNC(=O)OCc1ccncc1)NCC(CCCN1CCC(c2ccccc2)CC1)(c1ccccc1)c1ccccc1` [CBK024060A], for which the viability at 28.5 h, 10 µM was determined as 112%.
For `CC(C)N(CCc1cc2ccccc2o1)C(C)C` [CBK011518C], under “bulk resorufin, single well”, the viability at 28.5 h, 10 µM amounted to 113%.
Take `Cc1noc(C)c1C(=O)N(C)Cc1cc(-c2ccncc2)no1` [CBK306677]: the viability at 28.5 h, 10 µM was 102%.
Same read-out and setting: in the case of `c1ccc2c(CCN3CCC(Oc4nccnc4OC4CCCCC4)CC3)c[nH]c2c1` [CBK082877T] it was 86.2%.
Consider `CC1CCN(CC(=O)Nc2sc3c(c2C(=O)NCc2ccccc2)CCCC3)CC1` [CBK268387], for which the viability at 28.5 h, 10 µM worked out at 107%.
As for `NC(=O)c1ccc(-c2cncc(NCc3ccco3)n2)cc1` [CBK065383], the viability at 28.5 h, 10 µM stood at 85.6%.
For the compound `O=C(COC(=O)C1CCN(S(=O)(=O)c2cccc3cccnc23)CC1)c1cccc([N+](=O)[O-])c1` [CBK264435], the viability at 28.5 h, 10 µM is 97%.
With `Cn1nccc1C(=O)NC(Cc1ccsc1)c1nccs1` (centres unmarked) [CBK285138], the viability at 28.5 h, 10 µM stood at 98.1%.
For `Cc1ccc(-c2cc(C(=O)Nc3ccc(S(N)(=O)=O)cc3)c3ccc(Cl)c(C)c3n2)cc1` [CBK267745], the viability at 28.5 h, 10 µM came out at 111%.
Consider `O=S(=O)(Nc1cccc(Br)c1)c1ccc(OC(F)(F)F)cc1` [CBK044369], for which the viability at 28.5 h, 10 µM was 114%.
Same read-out and setting: in the case of `Cc1cccc(-c2ccc(CC3(C(=O)NC(C)C)CCN(C(=O)C(C)C)CC3)cc2)c1` [CBK285756] it was 99.8%; in that of `CCNC(=O)N1CCN(CCOC(c2ccc(F)cc2)c2ccc(F)cc2)CC1` [CBK024943C], 95.6%; in that of `CS(=O)(=O)N1CC=CC1C(=O)NCCCc1ccc(F)cc1` (centres unmarked) [CBK282631], 85.5%.
The same measure, in the same setting: in the case of `COCCC(=O)NC(Cc1cccs1)c1nccs1` (centres unmarked) [CBK282180] it was 83.3%.
As to `CC(C)=NNC(=N)Nc1ccccc1` [CBK021452], the viability at 28.5 h, 10 µM came to 90.4%.
`COc1cc(C)nc(NC(=O)COc2ccc(Cl)cc2C)n1` [CBK266681]: the viability at 28.5 h, 10 µM stood at 106%.
For the compound `COc1ccc(OC(=O)Cc2ccccc2)cc1` [CBK131826], the viability at 28.5 h, 10 µM (bulk resorufin, single well) amounted to 117%.
Take `C/C(=N\Nc1nc(C(=O)O)cs1)c1ccccc1` [CBK261633]: the viability at 28.5 h, 10 µM turned out to be 88.7%.
With `Cc1ccc(S(=O)(=O)NCCSc2nnc(Nc3ccccc3)s2)cc1` [CBK266345], the viability at 28.5 h, 10 µM was 106%.
With `c1ccc(-c2ccc(-c3cc(N4CCN(CCN5CCCC5)CC4)ncn3)cc2)cc1` [CBK091165], the viability at 28.5 h, 10 µM is 99%.
Consider `COc1ccc(S(=O)(=O)NC(C)C(=O)NCc2ccccn2)cc1Cl` (centres unmarked) [CBK269275], for which the viability at 28.5 h, 10 µM was 101%.
For the compound `CN1CCN(Cc2oc(CO)cc(=O)c2O)CC1` [CBK288394], the viability at 28.5 h, 10 µM was found to be 89.6%.
For the compound `COc1ccc(-c2c(C(F)(F)F)oc3c(CN4CC(C)OC(C)C4)c(O)ccc3c2=O)cc1OC` (centres unmarked) [CBK217829], the viability at 28.5 h, 10 µM stood at 100%.
For the compound `COc1cc2c(cc1OC)C1c3ccccc3N(Cc3ccccc3)C(=O)N1CC2` (centres unmarked) [CBK286192], the viability at 28.5 h, 10 µM was determined as 86.8%.
`CC(=O)NC[C@H]1CN(c2ccc3c(c2)CCN(C(C)=O)CC3)C(=O)O1` [CBK018491]: the viability at 28.5 h, 10 µM amounted to 86.6%.
As for `COc1ccc(C(=O)NC(NC(=S)Nc2cccc3cccnc23)C(Cl)(Cl)Cl)cc1` (centres unmarked) [CBK261028], the viability at 28.5 h, 10 µM amounted to 94.6%.
The same measure, in the same setting: in the case of `COc1ccc(C2OCCN2C(C)=O)cc1` (centres unmarked) [CBK004536] it was 80.8%; in that of `c1c2c(cc3sc(N4CCCC4)nc13)OCCO2` [CBK287496], 69.6%.
Consider `COc1cc(C=C2C(=O)NC(=O)NC2=O)cc(I)c1OCc1ccc(Cl)cc1Cl` [CBK262528], for which, for the setting “bulk resorufin, single well”, the viability at 28.5 h, 10 µM was 91.8%.
As to `N#Cc1cnccc1N1CC2COCCC2(C(=O)N2CCCC2)C1` (centres unmarked) [CBK304731], the viability at 28.5 h, 10 µM amounted to 83%.
Take `CCCCCOc1ccc(Nc2ccc(-c3cc4ccccc4o3)cn2)cc1` [CBK036828]: the viability at 28.5 h, 10 µM was 93.6%.
Take `Cc1nc(-c2cccc(OC(F)F)c2)n(C2CCN(C)CC2)n1` [CBK307382]: the viability at 28.5 h, 10 µM came to 97.1%.
On the same count and under the same terms, in the case of `CN1C2CCCC1CC(OC(=O)c1cccc3nc[nH]c13)C2` (centres unmarked) [CBK090162] it was 99.3%; in that of `Cc1[nH]c2cccc(C(=O)N(C)CCc3cn[nH]c3)c2c1C` [CBK283070], 85.4%; in that of `CN1CCN(CCCNC(=O)c2ccc(-c3ccoc3)nc2)CC1` [CBK156257], 93.3%.
On the same count and under the same terms, in the case of `O=S(=O)(Nc1ccc2ncccc2c1)c1ccc(OC(F)(F)F)cc1` [CBK045339] it was 99.7%; in that of `CCOCCC(=O)NC1CCCc2nc(N3CCC(CO)CC3)ncc21` (centres unmarked) [CBK306624], 92.8%; in that of `CC(=O)N(C)[C@H]1CC[C@]2(CC1)CNC(=O)c1cc(C)ccc1O2` [CBK281690], 101%.
On the same count and under the same terms, in the case of `COc1ccc(-c2nc(NC(=O)c3ccncc3)cnc2-c2ccc(F)c(Cl)c2)cc1` [CBK036663] it was 88.6%; in that of `O=C(COc1ccc2ccccc2c1)Nc1ccc(N2CCN(Cc3ccccc3)CC2)cc1` [CBK266104], 98.3%; in that of `CC/C(=C\c1sc2ccc3ccccc3c2[n+]1CCCS(=O)[O-])SC` [CBK264941], 107%.
As for `CCCOCCN1CCN(C(=O)c2nn3cc(C)cnc3c2Cl)CC1` [CBK306690], the viability at 28.5 h, 10 µM was found to be 95.6%.
On to `CN(C)C(=O)CCc1nc(-c2ccccn2)no1` [CBK297735], for which the viability at 28.5 h, 10 µM amounted to 88.3%.
For the compound `O=C(c1ccccc1F)N1CCC(O)(c2cccnc2F)CC1` [CBK284356], the viability at 28.5 h, 10 µM was 97.1%.
On to `CC(C)[C@@H](CO)Nc1nc(-c2cc(C(F)(F)F)cc(C(F)(F)F)c2)cn2ccnc12` [CBK037496], for which the viability at 28.5 h, 10 µM is 84.9%.
The same measure, in the same setting: in the case of `COc1ccc(Cl)cc1S(=O)(=O)N(C)CC(=O)O` [CBK269919] it was 97.1%; in that of `CC(=O)Nc1cccc(-c2cc(Nc3ccc(N4CCN(Cc5ccccc5)CC4)cc3)ncn2)c1` [CBK037709], 81.8%.
Turning to `O=C(Cc1cccs1)N1CCC2(CC1)OCc1ccccc1O2` [CBK061086], where the note is “bulk resorufin, single well”, the viability at 28.5 h, 10 µM came out at 86.8%.
On to `O=[N+]([O-])c1ccc(CCNCC(O)COc2cccc3c2CCCC3)cc1` (centres unmarked) [CBK003083], for which the viability at 28.5 h, 10 µM is 88.6%.
The same measure, in the same setting: in the case of `c1ccc(Cn2cc(-c3cnc(N4CCOCC4)c4nccn34)cn2)cc1` [CBK091289] it was 79.7%; in that of `CC(C)Oc1ncc(C(=O)NCCCC(=O)O)cc1Cl` [CBK305192], 107%; in that of `COc1ccc(CN2CCN(CCCc3ccccc3)CC2)c(OC)c1` [CBK263378], 95.1%.
In the case of `Cc1cc(N2CCCC2)c(F)cc1CN1CCC(O)C(C)C1` (centres unmarked) [CBK282963], the viability at 28.5 h, 10 µM amounted to 91.6%.
Consider `CC1CCN(CC(CS(=O)(=O)c2ccc([N+](=O)[O-])cc2)N2CCC(C)CC2)CC1` (centres unmarked) [CBK267506], for which the viability at 28.5 h, 10 µM was determined as 86.2%.
Turning to `Cc1cc(N2CCOC(c3cccs3)C2)ccn1` (centres unmarked) [CBK304691], the viability at 28.5 h, 10 µM worked out at 96.2%.
Turning to `Cc1cc(C)c(S(=O)(=O)Nc2ccc(S(=O)(=O)Nc3ccc(Cl)cc3Cl)cc2)c(C)c1` [CBK266022], the viability at 28.5 h, 10 µM stood at 109%.
On to `C=CCOc1c(CNc2cccc(C(=O)O)c2)cccc1OC` [CBK074432], for which the viability at 28.5 h, 10 µM came out at 95.6%.
In the case of `O=C(CCCc1nc(-c2ccc(Cl)cc2)no1)NCc1cccnc1` [CBK269415], the viability at 28.5 h, 10 µM came out at 90.4%.
As to `CC(Oc1ccc(Cl)cc1Cl)C(=O)Nc1sc2c(c1C(N)=O)CCCCCC2` (centres unmarked) [CBK265394], the viability at 28.5 h, 10 µM was found to be 85.8%.
On to `CCOC(=O)CCNC(=O)N(CC)Cc1ccccc1` [CBK155228], for which the viability at 28.5 h, 10 µM is 88.7%.
Consider `CCN1CCC(CC(=O)N2CCc3[nH]c4ccccc4c3C2)CC1` [CBK281846], for which the viability at 28.5 h, 10 µM is 86.5%.
As to `O=C(Cn1cnnn1)N1CCc2ccccc2C1` [CBK200335], the viability at 28.5 h, 10 µM stood at 101%.
As for `Cn1nc(C2CCN(C(=O)C3CCCCC3)CC2)c2cccnc21` [CBK284897], the viability at 28.5 h, 10 µM stood at 78.6%.
For the compound `Cc1cc(=O)[nH]c(N/N=C/c2ccc(Cl)cc2Cl)n1` [CBK024387], the viability at 28.5 h, 10 µM stood at 95.8%.
Consider `O=C(CC(NCCO)C(=O)O)Nc1cccc(C(F)(F)F)c1` (centres unmarked) [CBK267065], for which the viability at 28.5 h, 10 µM came to 109%.
Still for that read-out and setting: in the case of `CN(C)CCCN1C(=O)C(O)=C(C(=O)c2ccncc2)C1c1ccccc1` (centres unmarked) [CBK287779] it was 107%.

A word on the viability: it is a read-out of living cells in per cent, often relative to untreated cells.

The record behind these values is PMC12040169 (PLOS Biology, 2025).
